Data taken from patent publication US8765786B2, “1-substituted indazole derivative” (Dainippon Sumitomo Pharma Co., Ltd., priority 2012, dated 2014).

Biological target: T1, human α7 nAChR (Homo sapiens, UniProt P36544)
T1 construct: expressed in transfected cells; host or cells: GH4C1 cells derived from rat pituitary (ATCC CCL-82.2)
Experiment: Evaluation of PAM activity with human α7 nACh receptor stably expressing cells (aequorin luminescence, FDSS7000)
Type: cell-based
Conditions: for α7PAM (%) @ 10 μmol/L / activity at 10 µM: test compound 10 μmol/L, ACh added at EC20, ratio of RLU (Max-Min) of test wells to control wells; for activity at 10 µM: read-out: α7PAM (%) @ 10 μmol/L
Description: Human α7 nAChR stably expressing cells were generated and cultured. In detail, GH4C1 cells derived from rat pituitary (cat#CCL-82.2, ATCC, USA) were used as a host cell. PcDNA3.1Zeo vector containing a nucleotide sequence encoding a protein GenBank BAC81731 and pcDNA3.1 vector containing human α7 nAChR gene (cat#V790-20, invitrogen, Carlsbad, Calif., USA) were transfected to the cells to give aequorins and human α7 nAChR stably expressing cells respectively. The aequorins and human α7 nAChR stably expressing cells were screened with Zeocin (cat#R25001, invitrogen, Carlsbad, Calif., USA) and Geneticin (cat #10131-027, invitrogen, Carlsbad, Calif., USA) respectively.
The cells were cultured in F-10 Nutrient Mixture (Ham) medium (cat #11550-043, invitrogen, Carlsbad, Calif., USA) containing 2.5% fetal bovine serum (cat #2917354, ICN Biomedicals, Inc, USA), 15% inactivated horse serum (cat #26050-088, invitrogen, Carlsbad, Calif., USA), 1 μg/mL Geneticin, and 5 μg/mL Puromycin (cat #14861-84, invitrogen, Carlsbad, Calif., USA), in a Collagen Type 1-coated dish (cat #4030-010, iwaki, Tokyo, Japan). During the culture, the medium was replaced with fresh medium in every 2 to 3 days, and the cells were treated with TrypLE Express (cat #45604-021, invitrogen, Carlsbad, Calif., USA) to collect them in every 7 days. Thus, the cells were subcultured.
7 Days after subculturing, the cells were treated with TrypLE Express to collect them when they were about 80% confluent. The cells were suspended in a reaction medium containing Hanks (cat #14065-056, invitrogen, Carlsbad, Calif., USA)/20 mmol/L Hepes (cat #15630-080, invitrogen, Carlsbad, Calif., USA), Buffer (pH 7.4), F-10 Nutrient Mixture (Ham), and 0.1 mg/mL Geneticin, and the suspension was seeded in a 384-well plate (cat #781090, Greiner, Germany) at 20000 cells/25 μL per well.
On the next day after seeding, Viviren (cat#E649X, Promega, Madison, Wis., USA) was added to the medium so that the final concentration could be 4 μmol/L (15 μL/well). The plates were centrifuged and then placed in the dark for 4 hours at room temperature.
Each of the test compounds was dissolved in DMSO to prepare each test sample at a concentration of 1000-fold the final concentration. To the solution was added Hanks/20 mM HEPES/0.2% BSA (cat#A3803, Sigma, St. Louis, Mo., USA), and the concentration was adjusted to 6-fold the final concentration.
FDSS7000 (Hamamatsu Photonics) was used to detect the luminescence signal evoked by α7 nAChR stimulation. The cells and a luminescent substrate were put on a plate, and the test sample was added thereto. […] After the addition of ACh, the luminescence signal (the central wavelength: 465 nm) was measured for 138 seconds to calculate RLU (Max-Min). The ratio of the RLU (Max-Min) of the test-compound-containing wells to that of the control wells was defined as PAM activity.

T1 sequence (P36544 23-502): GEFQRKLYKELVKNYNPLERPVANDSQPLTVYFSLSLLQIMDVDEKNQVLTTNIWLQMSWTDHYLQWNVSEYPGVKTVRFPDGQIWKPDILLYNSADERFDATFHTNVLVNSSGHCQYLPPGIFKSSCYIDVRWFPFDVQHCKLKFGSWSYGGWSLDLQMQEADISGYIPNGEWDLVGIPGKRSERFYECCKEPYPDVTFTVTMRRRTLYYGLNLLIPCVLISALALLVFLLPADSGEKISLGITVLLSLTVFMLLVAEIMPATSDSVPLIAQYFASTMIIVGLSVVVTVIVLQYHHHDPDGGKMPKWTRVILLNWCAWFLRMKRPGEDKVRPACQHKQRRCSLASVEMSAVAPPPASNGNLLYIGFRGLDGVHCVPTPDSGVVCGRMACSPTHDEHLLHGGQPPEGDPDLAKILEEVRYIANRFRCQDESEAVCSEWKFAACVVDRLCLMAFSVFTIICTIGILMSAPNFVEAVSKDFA

Structure (SMILES) | α7PAM (%) @ 10 μmol/L [%] | other results
COCCc1ccc2c(cnn2C2CCN(C(=O)NC3CCC(F)(F)CC3)CC2)c1 [Example 239] | 485 | –
CCOc1c(C)ccc2c1cnn2C1CCN(C(=O)NC2CCC(F)(F)CC2)CC1 [Example 269] | 835 | –
O=C(C1CCC(F)(F)CC1)N1CCC(n2ncc3ccccc32)CC1 [Example 137] | 328 | –
O=C(NC1CCC(F)(F)CC1)N1CCC(n2ncc3c(F)cccc32)CC1 [Example 190] | 256 | –
CC(C)c1ccc2c(cnn2C2CCN(C(=O)NC3CCOCC3)CC2)c1 [Example 14] | 728 | –
O=C(NC1CCOCC1)N1CCC(n2ncc3cc(C(F)(F)F)ccc32)CC1 [Example 297] | 340 | –
CCc1cccc2c1cnn2C1CCN(C(=O)N[C@H]2CC[C@H](OC(F)F)CC2)CC1 [Example 159] | 187 | –
CCc1ccc2c(cnn2[C@H]2CC[C@@H](C(=O)NC3CCOCC3)CC2)c1 [Example 129] | 325 | –
O=C(NC1CCC(F)(F)CC1)N1CCC(n2ncc3c(C4CC4)cccc32)CC1 [Example 161] | 567 | –
O=C(NC1CCC(F)(F)CC1)N1CCC(n2ncc3ccccc32)CC1 [Example 38] | 1101 | –
Cc1ccc2c(cnn2C2CCN(C(=O)NC3CCCCC3)CC2)c1 [Example 8, N-cyclohexyl-4-(5-methyl-1H-indazol-1-yl)piperidine-1-carboxamide] | – | PAM activity for α7 nAChR (result in words, ratio of RLU (Max-Min) to control wells, ACh EC20): stronger PAM activity than others
CCc1cnc2c(cnn2C2CCN(C(=O)NC3CCC(F)(F)CC3)CC2)c1 [Example 99] | 755 | –
CCOc1nn(C2CCN(C(=O)NC3CCCC3)CC2)c2ccc(CC)cc12 [Example 56] | 676 | –
CCc1ccc2c(cnn2[C@H]2CC[C@@H](C(=O)NC3CCCC3)CC2)c1 [Example 128] | 429 | –
Cc1ccc2c(cnn2C2CCN(C(=O)NC3CC(F)(F)C3)CC2)c1 [Example 218] | 648 | –
CC(C)Cc1ccc2c(cnn2C2CCN(C(=O)C3CCOCC3)CC2)c1 [Example 103, (4-(5-isobutyl-1H-indazol-1-yl)piperidin-1-yl)(tetrahydro-2H-pyran-4-yl)methanone] | – | activity at 10 µM: 281%
COc1c(Br)ccc2c1cnn2C1CCN(C(=O)NC2CCC(F)(F)CC2)CC1 [Example 284] | 1109 | –
Cc1ccc2c(c1)c(OC(C)C)nn2C1CCN(C(=O)NC2CCOCC2)CC1 [Example 208] | 328 | –
COCc1nn(C2CCN(C(=O)NC3CCCCC3)CC2)c2ccc(C)cc12 [Example 68] | 430 | –

Structure (SMILES) | α7PAM (%) @ 10 μmol/L [%] | other results
[2H]C([2H])([2H])Oc1nn(C2CCN(C(=O)NC3CCC(F)(F)CC3)CC2)c2ccc(C(F)(F)F)cc12 [Example 310] | 134 | –
CCc1ccc2c(c1)c(OC(C)C)nn2C1CCN(C(=O)NC2CCC(F)(F)CC2)CC1 [Example 62] | 653 | –
COc1ccc2c(cnn2C2CCN(C(=O)NC3CCC(F)(F)CC3)CC2)c1C1CC1 [Example 280] | 299 | –
CCc1ccc2c(cnn2C2CCN(C(=O)NC3CCOCC3)CC2)c1 [Example 24] | 745 | –
CCOc1nn(C2CCN(C(=O)NC3CCOCC3)CC2)c2ccc(OC(F)(F)F)cc12 [Example 265] | 181 | –
COc1ccc(-c2ccc3c(cnn3C3CCN(C(=O)NC4CCC(F)(F)CC4)CC3)c2)cc1 [Example 156] | 358 | –
Cc1ccc2c(cnn2C2CCN(C(=O)N[C@@H]3CCCCC3(F)F)CC2)c1 [Example 78, (R)—N-(2,2-difluorocyclohexyl)-4-(5-methyl-1H-indazol-1-yl)piperidine-1-carboxamide] | – | activity at 10 µM: 987%
[2H]C([2H])([2H])O[C@H]1CC[C@H](NC(=O)N2CCC(n3ncc4cc(C5CC5)ccc43)CC2)CC1 [Example 296, 4-(5-cyclopropyl-1H-indazol-1-yl)-N-{trans-4-[(^2H3)methoxy]cyclohexyl}piperidine-1-carboxamide] | 1268 | –
COc1ccc2c(c1)c(C1=CCOCC1)nn2C1CCN(C(=O)NC2CCC(F)(F)CC2)CC1 [Example 259] | 309 | –
CCc1ccc2c(c1)c(OC)nn2C1CCN(C(=O)NC2CCOCC2)CC1 [Example 150] | 643 | –
CCc1cccc2c1cnn2C1CCN(C(=O)C2CCC(F)(F)CC2)CC1 [Example 139] | 1018 | –
CCc1nn(C2CCN(C(=O)NC3CCOCC3)CC2)c2ccc(OC)cc12 [Example 244] | 324 | –
O=C(NC1CCOCC1)N1CCC(n2ncc3c(OC(F)(F)F)cccc32)CC1 [Example 304] | 380 | –
O=C(NC1CCCOC1)N1CCC(n2ncc3cc(OC(F)(F)F)ccc32)CC1 (centres unmarked) [Example 300, N-(tetrahydro-2H-pyran-3-yl)-4-[5-(trifluoromethoxy)-1H-indazol-1-yl]piperidine-1-carboxamide] | – | activity at 10 µM: 376%
O=C(C1CCOCC1)N1CCC(n2ncc3cc(F)ccc32)CC1 [Example 104] | 190 | –
Cc1c(Br)ccc2c1cnn2C1CCN(C(=O)NC2CCC(F)(F)CC2)CC1 [Example 286] | 825 | –
O=C(NC1CCC1)N1CCC(n2ncc3cc(C(F)(F)F)ccc32)CC1 [Example 298, N-cyclobutyl-4-[5-(trifluoromethyl)-1H-indazol-1-yl]piperidine-1-carboxamide] | – | activity at 10 µM: 315%
CCOc1cccc2c1cnn2C1CCN(C(=O)NC2CCCCC2)CC1 [Example 191] | 493 | –
CCc1cnc2c(cnn2C2CCN(C(=O)NC3CCOCC3)CC2)c1 [Example 101] | 338 | –

Continued, in another order:

α7PAM (%) @ 10 μmol/L [%] | Structure (SMILES) | other results
851 | COC1CC1c1ccc2c(cnn2C2CCN(C(=O)NC3CCC(F)(F)CC3)CC2)c1 (centres unmarked) [Example 248] | –
252 | CCc1ccc2c(cnn2[C@H]2CC[C@@H](C(=O)NC3CCC(OC)CC3)CC2)c1 (some centres unmarked) [Example 130] | –
1230 | CCc1ccc2c(cnn2[C@H]2CC[C@@H](NC(=O)[C@H]3CC[C@@H](OC)CC3)CC2)c1 [Example 124] | –
364 | COC1CC1c1ccc2c(cnn2C2CCN(C(=O)N[C@H]3CC[C@H](OC)CC3)CC2)c1 (some centres unmarked) [Example 246] | –
807 | [2H]C([2H])([2H])O[C@H]1CC[C@H](NC(=O)N2CCC(n3nc(C4CCOCC4)c4cc(C)ccc43)CC2)CC1 [Example 316] | –
89 | COC1CCC(NC(=O)N2CCC(n3ncc4c(Br)cccc43)CC2)CC1 (centres unmarked) [Example 98] | –
179 | CCc1ccc2c(cnn2C2CCCN(C(=O)NC3CCC(OC)CC3)CC2)c1 (centres unmarked) [Example 84] | –
811 | Cc1ccc2c(cnn2C2CCN(C(=O)N[C@H]3CC[C@H](OC(F)F)CC3)CC2)c1 [Example 154] | –
689 | O=C(NC1CCCC1)N1CCC(n2ncc3cc(OC(F)(F)F)ccc32)CC1 [Example 229] | –
207 | CO[C@H]1CC[C@@H](NC(=O)N2CCC(n3ncc4c(C5CC5)cccc43)CC2)CC1 [Example 160] | –
293 | COc1c(Br)ccc2c1cnn2C1CCN(C(=O)N[C@H]2CC[C@H](OC)CC2)CC1 [Example 285] | –
639 | [2H]C([2H])([2H])O[C@H]1CC[C@H](NC(=O)N2CCC(n3ncc4cc(OC5CC5)ccc43)CC2)CC1 [Example 322] | –
621 | O=C(NC1CCOCC1)N1CCC(n2ncc3cc(C4CC4)ccc32)CC1 [Example 75] | –
209 | CC1(C)CC(NC(=O)N2CCC(n3ncc4cc(C5CC5)ccc43)CC2)CCO1 (centres unmarked) [Example 210] | –
271 | CC(=O)N1CCC(NC(=O)N2CCC(n3ncc4cc(C5CC5)ccc43)CC2)CC1 [Example 203] | –
